Reference: patent US9474774B2, “Pyridine alkaloids, preparation process thereof, and the uses of the pyridine alkaloids” (FOOD INDUSTRY RESEARCH AND DEVELOPMENT INSTITUTE, priority 2010, dated 2016)
Values joined by “and” are separate entries in the source; they are usually repeats but may differ in a detail not shown here. Equal entries are not always repeated. Where two headings read alike, the source gives them in different places.

Columns and labels:
[1] = test system: LPS-stimulated macrophage cells RAW264.7; assay: Inhibition of NO production induced by LPS (Griess reagent); format: cell-based, murine; settings: Mus musculus, LPS 1 μg/mL, 24 hours
Experimental: (§1) The murine macrophage cell line RAW264.7 (BCRC 60001=ATCC TIB-71) was cultured in Dulbecco's modified Eagle's medium (DMEM, Gibco BRL Life Technologies, Inc.) supplemented with 10% heat inactivated fetal bovine serum (FBS) and incubated at 37° C. in a humidified 5% CO2 atmosphere with a 96-well flat-bottomed culture plate. After 24 hours, the condition medium was replaced with fresh DMEM and FBS. Then the three test compounds, Monasnicotinates A, C and D, (0, 1, 5, 10, and 20 μg/mL) were added respectively in the presence of lipopolysaccharide (LPS, 1 μg/mL; Sigma, Cat no: L-2654), and the plates were incubated at the same condition for 24 hours.
(§2) The cultured cells were then centrifuged and the supernatants were used for NO production measurement, with a MTT (3-(4,5-dimethylthiazol-2yl)-2,5-diphenyl tetrazolium bromide) assay to determine cell viability. The supernatant was mixed with an equal volume of the Griess reagent (1% sulfanilamide, 0.1% N-(1-naphthyl)ethyl-enediamine dihydrochloride in 2.5% phosphoric acid solution) and incubated for 10 min at room temperature. Nitrite concentration was determined by measuring the absorbance at 540 nm using an ELISA plate reader (μ Quant) (see Mosman, T., 1983, “Rapid colorimetric assay for cellular growth and survival: application to proliferation and cytotoxicity assays.” J. Immunol. Methods, 65: 55-63). The MTT colorimetric assay was modified from that of Mosmann (see Johansson, M., et al., 2002, “Biologically active secondary metabolites from the ascomycete A111-95.” J. Antibiot., 55: 104-106). The test is based upon the selective ability of living cells to reduce the yellow soluble salt, MTT, to a purple-blue insoluble formazan. MTT (Merck; dissolved in phosphate-buffered saline at 5 mg/mL) solution was added onto the attached cells mentioned above (10 μl per 100 μl culture) and incubated at 37° C. for 4 hours. Then, DMSO was added and the amount of colored formazan metabolite formed was determined by absorbance at 550 nm. The optical density of formazan formed in control (untreated) cells was taken as 100% viability.

RAW264.7 = assay: MTT cell viability assay; format: cell-based, murine
Experimental: as §1, §2

3T3-L1 preadipocytes [2] = assay: 3T3-L1 preadipocyte differentiation, DMI differentiation model; format: cell-based; settings: for triglyceride droplets under inverted microscope: 5 μg/ml, vs DMI control; for TG (%): sample concentration 5 μg/ml, control = 100
Experimental: (§3) Preadipocytes were prepared according to the method described by Waki et al., (2007, “The small molecule harmine is an antidiabetic cell-type-specific regulator of PPARγ expression.” Cell Metabolism, 5(5): 357-370) and Huang et al., (2005, “Herbal or natural medicines as modulators of peroxisome proliferator-activated receptors and related nuclear receptors for therapy of metabolic syndrome.” Basic and Clinical Pharmacology and Toxicology, 96: 3-14.). Preadipocytes were cultured in DMEM (Dulbecco's Modified Eagle's Medium-high glucose, Sigma D-7777) containing 10% of fetal bovine serum (FBS) and incubated at 37° C. in a 5% CO2 incubator.
(§4) Before the differentiation induction experiments, the cells were plated into either 96- or 24-well plates (the concentration of cells in each well was about 2×10^4/cm^2). The plates were incubated for about two days to allow the cells to proliferate to confluence, and then maintained for another two days. The medium was changed to different differentiation media according to different experiments. The day of switching to differentiation medium was designated as day zero.
The differentiation medium used in DMI differentiation model comprised an three-in-one differentiation inducer (DMI): dexamethasone (Sigma D-4902, dissolved in ethanol to produce a 0.25M stock solution), isobutyl-methylxanthine (Sigma 1-5879, dissolved in DMSO to produce a 0.5M stock solution), and insulin (Sigma I-6634, dissolved in 0.01N HCl to produce a 10 mg/ml stock solution). The final concentrations of dexamethasone, isobutyl-methylxanthine and insulin were 0.25 μM, 0.5 mM and 5 μg/ml, respectively.
The four test compounds, Monasnicotinates A, B, C and D, were dissolved in DMSO respectively to produce a 5 mg/ml stock solution. One ml of the differentiation medium containing test sample was added to each well of the 24-well 3T3-L1 preadipocyte plates (the final concentration of the sample in each well was 5 μg/ml). The control group was the culture with only the differentiation medium and no sample. The cultures were incubated at 37° C. in a 5% CO2 incubator for three days, and then the medium was replaced by DMEM with 10% FBS. The cultures were maintained until day 9 or day 10, and the amounts of triglyceride in the cells were analyzed. The extents of differentiation (the amounts of oil droplets) were also examined under an inverted microscope.
(§5) The 96-well plates were rinsed with PBS, and 200 μl of PBS and 5 μl of AdipoRed reagent (Lonze Walkersville, Inc., Walkersville, Md., USA, Catalog No. PT-7009) were added to each well. After 10 to 15 minutes, the plates were read with a spectrofluorometer (Infinite M200) set at an excitation wavelength of 485 nm and an emission wavelength of 572 nm. The fluorescent data of the experiment group was divided by the fluorescent data of the control group to obtain a percentage of induction activity.
(§6) The 24-well plates were rinsed with PBS, and the cells were washed off with 0.1 ml of 1% Triton λ 100 per well. The cells were then frozen, thawed and centrifuged (10,000 rpm/5 min) and the supernatant were collected. An aliquot of 0.05 ml of the supernatant was analyzed using Triglycerol assay Kit (Audit Diagnostics, Ltd.).
(§7) The protein amounts were analyzed using Bio-Rad Dc Protein assay reagent (Bio-Rad). The triglyceride concentration was divided by the protein concentration obtained using Bio-Rad Dc Protein assay to calculated the amount (μg) of triglyceride per μg protein. The triglyceride amounts of the experiment groups were divided by those of the control groups to determine the differentiation induction activity of the samples.
(§8) 3T3-L1 preadipocytes differentiation assay was conduct according to Example 5.

3T3-L1 preadipocytes [3] = assay: 3T3-L1 preadipocyte differentiation, insulin differentiation model; format: cell-based; settings: sample concentration 2 μg/ml, control = 100
Experimental: as §3, §4
The differentiation medium used in insulin differentiation model was DMEM with 10% FBS comprising 10 μg/ml of insulin. Differentiation media containing each of the four test compounds, Monasnicotinates A, B, C and D, were added to each well of the 24- or 96-well 3T3-L1 preadipocyte plates (the final concentration of the test compounds in each well is 2 μg/ml). The control group was the culture with only the differentiation medium and no sample. The cultures were incubated at 37° C. in a 5% CO2 incubator for seven days (during the period, the differentiation medium and sample were replaced with fresh ones twice), and then the medium was replaced by DMEM with 10% FBS. The cultures were maintained until day 9 or day 10. The cells of the experiment groups and control groups at day 9 or day 10 were stained with AdipoRed and the concentrations of triglyceride were analyzed.
as §5, §6, §7, §8

PPARγ [4] = target: T1, PPARγ (Homo sapiens, UniProt P37231); assay: LanthaScreen TR-FRET PPARγ competitive binding assay
T1 construct: purchased Invitrogen
T1 sequence (P37231 204-505 limits assumed): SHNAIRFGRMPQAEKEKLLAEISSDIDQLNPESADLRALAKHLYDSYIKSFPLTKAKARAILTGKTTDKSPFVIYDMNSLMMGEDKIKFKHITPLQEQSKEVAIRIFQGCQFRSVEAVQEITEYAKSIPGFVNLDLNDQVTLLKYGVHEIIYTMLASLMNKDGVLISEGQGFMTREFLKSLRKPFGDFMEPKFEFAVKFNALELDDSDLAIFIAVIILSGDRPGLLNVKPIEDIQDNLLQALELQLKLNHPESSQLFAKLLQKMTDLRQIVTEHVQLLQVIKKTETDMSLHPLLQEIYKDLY
Experimental: Monasnicotinates A, B, C and D were prepared according to Example 3 and Ethanol and ethyl acetate extracts of BCRC 930146-fermented rice were prepared according to Example 7. The binding activity of Monasnicotinates A, B, C and D and ethanol and ethyl acetate extracts of BCRC 930146-fermented rice to PPARγ and PPARα were analyzed using competitive binding assay kits (LanthaScreen TR-FRET PPARγ Binding Assay and Invitrogen PPARα Competitive Binding Assay) according to their instructions. Troglitazone and arachidonic acid were used as reference substances for PPARγ and PPARα ligand, respectively.

adiponectin = assay: Cytosolic adiponectin ELISA in differentiated 3T3-L1 cells; format: cell-based, Mouse; settings: insulin model and DMI model, 5 μg/mL (FIG. 7)
Experimental: 3T3-L1 cells were treated with Monasnicotinates A, B, C and D (prepared in Example 3) as described in Example 5. Nuclear and cytosolic proteins of the differentiated 3T3-L1 cells were extracted and the nuclear PPARγ and cytosolic adiponectin contents were analyzed using commercial kits.
(§9) 3T3-L1 cells were incubated and differentiated on petri dish (9 cm) for 9 days and washed with PBS. 1 ml of buffer A working solution (Affymetrix® Nuclear Extraction Kits, Panomics, Inc.; freshly prepared according to the instructions) was added to the petri dish, and the petri dish was placed on ice and shaken for 10 minutes on a shaker. Cells on the petri dish were transferred to a 1.5 ml centrifuge tube and centrifuged at 14,000 rpm for 3 minutes. The supernatant, the cytosol fraction, was collected for further analysis. 0.5 ml of buffer B working solution (Affymetrix® Nuclear Extraction Kits, Panomics, Inc.; freshly prepared according to the instructions) was added to the centrifuge tube to re-suspend the cell pellet and the centrifuge tube was placed on ice and shaken for two hours on a shaker. The centrifuge tube was then centrifuged at 14,000 rpm for 5 minutes. The supernatant, the nucleus fraction, was collected for further analysis.
Cytosolic adiponectin in the cytosol fraction was analyzed using Quantikine Mouse Adiponectin immunoassay (R&D systems) according to the instructions.

PPARγ [5] = assay: Nuclear PPARγ ELISA in differentiated 3T3-L1 cells; format: cell-based; settings: final sample concentration 5 μg/mL, control: medium only
Experimental: Nuclear and cytosolic proteins of the differentiated 3T3-L1 cells were extracted and the nuclear PPARγ and cytosolic adiponectin contents were analyzed using commercial kits.
as §9
Nuclear PPARγ in the nucleus fraction was analyzed using Transcription Factor PPARγ ELISA Kit (Panomics, Inc.) according to the instructions.

[6] = test system: LPS-stimulated macrophage cells RAW264.7; settings: literature value; read-out: IC50, production of NO by LPS-stimulated RAW264.7 (reported, Motai and Kitanaka 2005); cited from earlier work

Structure (SMILES): C/C=C/c1cc(/C=C(\CC(=O)CCCCC)C(C)=O)c(C(=O)OC)cn1 [Monasnicotinate A, methyl-4-((E)-2-acetyl-4-oxonon-1-enyl)-6-((E)-prop-1-enyl)nicotinate]
- IC50 [1]: 5.72 µg/mL and 16 µM
- Cytotoxicity (MTT assay) (RAW264.7; 1-10 μg/mL, with LPS treatment for 24 hours): did not show any significant cytotoxicity
- triglyceride droplets under inverted microscope (3T3-L1 preadipocytes [2]): more triglyceride droplets than the control culture
- TG (%) (3T3-L1 preadipocytes [2]): 159%
- AdipoRed (%) (3T3-L1 preadipocytes [3]): 159%
- TG (%) (3T3-L1 preadipocytes [3]): 128%
- IC50 (PPARγ [4]): 42 µM
- concentration of cytosolic adiponectin (adiponectin): increase
- PPARγ expression (% of control) (PPARγ [5]; DMI model): 100 ± 7 % of control
- PPARγ expression (% of control) (PPARγ [5]; Insulin model): 139 ± 1 % of control

Structure (SMILES): C/C=C/c1cc(/C=C(\CC(=O)CCCCC)C(C)=O)c(C(=O)OCC)cn1 [Monasnicotinate B, ethyl-4-((E)-2-acetyl-4-oxonon-1-enyl)-6-((E)-prop-1-enyl)nicotinate]
- triglyceride droplets under inverted microscope (3T3-L1 preadipocytes [2]): more triglyceride droplets than the control culture
- TG (%) (3T3-L1 preadipocytes [2]): 175%
- AdipoRed (%) (3T3-L1 preadipocytes [3]): 287%
- TG (%) (3T3-L1 preadipocytes [3]): 132%
- IC50 (PPARγ [4]): 11 µM
- concentration of cytosolic adiponectin (adiponectin): increase
- PPARγ expression (% of control) (PPARγ [5]; DMI model): 147 ± 2 % of control
- PPARγ expression (% of control) (PPARγ [5]; Insulin model): 237 ± 9 % of control

Structure (SMILES): C/C=C/c1cc(/C=C(\CC(=O)CCCCCCC)C(C)=O)c(C(=O)OC)cn1 [Monasnicotinate C, methyl-4-((E)-2-acetyl-4-oxoundec-1-enyl)-6-((E)-prop-1-enyl)nicotinate]
- Cytotoxicity (MTT assay) (RAW264.7; at 10 μg/mL): significant cytotoxic effect
- triglyceride droplets under inverted microscope (3T3-L1 preadipocytes [2]): more triglyceride droplets than the control culture
- TG (%) (3T3-L1 preadipocytes [2]): 132%
- AdipoRed (%) (3T3-L1 preadipocytes [3]): 209%
- TG (%) (3T3-L1 preadipocytes [3]): 145%
- IC50 (PPARγ [4]): 18.2 µM
- concentration of cytosolic adiponectin (adiponectin): increase
- PPARγ expression (% of control) (PPARγ [5]; DMI model): 115 ± 1 % of control
- PPARγ expression (% of control) (PPARγ [5]; Insulin model): 333 ± 15 % of control

Structure (SMILES): CCCCCC(=O)C/C(=C\c1cc(CCC)ncc1C(=O)OC)C(C)=O [Monasnicotinate D, (E)-methyl-4-(2-acetyl-4-oxonon-1-enyl)-6-propylnicotinate]
- IC50 [1]: 9.4 µg/mL and 24.8 µM
- Cytotoxicity (MTT assay) (RAW264.7; 1-20 μg/mL, with LPS treatment for 24 hours): did not show any significant cytotoxicity
- triglyceride droplets under inverted microscope (3T3-L1 preadipocytes [2]): more triglyceride droplets than the control culture
- TG (%) (3T3-L1 preadipocytes [2]): 204%
- AdipoRed (%) (3T3-L1 preadipocytes [3]): 247%
- TG (%) (3T3-L1 preadipocytes [3]): 169%
- IC50 (PPARγ [4]): 64.5 µM
- concentration of cytosolic adiponectin (adiponectin): increase
- PPARγ expression (% of control) (PPARγ [5]; DMI model): 166 ± 5 % of control
- PPARγ expression (% of control) (PPARγ [5]; Insulin model): 424 ± 19 % of control

Structure (SMILES): O=c1c(O)c(-c2ccc(O)c(O)c2)oc2cc(O)cc(O)c12 [quercetin, reference compound]
- IC50 [1]: 26.4 µM
- IC50 [6]: 26.8 µM
